Data from ChEMBL document CHEMBL1154410, “In vivo efficacy of a novel oxazolidinone compound in two mouse models of infection” (Antimicrob Agents Chemother, 2007).
Values after ≈ are worked out from the molar mass of the structure shown. Active and inactive are the calls of the source. The calls are words filed in the database; no cut-off is given here.

Experiments:
Staphylococcus aureus [1] = test: Antibacterial activity against methicillin-susceptible Staphylococcus aureus Smith infected in C3H mouse assessed as reduction in log number of CFU at 3.12 mg/kg/day, po administered within 15 mins of infection measured after 48 hrs by organ burden assay relative to control; type: functional
Staphylococcus aureus [2] = test: Antibacterial activity against methicillin-susceptible Staphylococcus aureus Smith infected in C3H mouse assessed as reduction in log number of CFU at 25 mg/kg/day, iv administered within 15 mins of infection measured after 48 hrs by organ burden assay relative to control; type: functional
Staphylococcus aureus [3] = test: Antibacterial activity against methicillin-susceptible Staphylococcus aureus Smith infected in C3H mouse assessed as renal sterilization at 25 mg/kg/day, po administered 15 mins postinfection; type: functional, organism-based
Staphylococcus aureus [4] = test: Antibacterial activity against methicillin-resistant Staphylococcus aureus COL infected in po dosed DBA/2 mouse localized infection model assessed as log reduction in CFU per gram of thigh at 5 mg/kg, po administered 2 hrs postinfection thrice daily for 1 day and once daily for 5 days measured after 48 hrs by organ burden assay relative to control; type: functional
Staphylococcus aureus [5] = test: Antibacterial activity against 3.6 x 10^8 CFU methicillin-resistant Staphylococcus aureus COL by dilution susceptibility test; type: functional
Staphylococcus aureus [6] = test: Antibacterial activity against methicillin-susceptible Staphylococcus aureus Smith infected in po dosed C3H mouse localized infection model assessed as reduction of number of CFU per gram of kidney administered 15 mins after infection measured after 48 hrs relative to control; type: functional
Staphylococcus aureus [7] = test: Antibacterial activity against methicillin-susceptible Staphylococcus aureus Smith infected in C3H mouse assessed as reduction in log number of CFU at 12.5 mg/kg/day, po administered within 15 mins of infection measured after 48 hrs by organ burden assay relative to control; type: functional
Staphylococcus aureus [8] = test: Antibacterial activity against 10^9 CFU linezolid-resistant methicillin-resistant Staphylococcus aureus by dilution susceptibility test; type: functional
Staphylococcus aureus [9] = test: Antibacterial activity against linezolid-resistant methicillin-resistant Staphylococcus aureus infected in po dosed C3H mouse localized infection model assessed as reduction of number of CFU per gram of thigh administered 2 hrs postinfection thrice daily for 1 day and once daily for 5 days measured after 48 hrs relative to control; type: functional; details: Thigh muscle
Staphylococcus aureus [10] = test: Antibacterial activity against methicillin-susceptible Staphylococcus aureus Smith infected in C3H mouse assessed as eradication at 25 mg/kg/day, po administered within 15 mins of infection assessed per gram of kidney measured after 48 hrs by organ burden assay relative to control; type: functional
Staphylococcus aureus [11] = test: Antibacterial activity against methicillin-resistant Staphylococcus aureus COL infected in po dosed DBA/2 mouse localized infection model assessed as log reduction in CFU per gram of thigh at 5 mg/kg, iv administered 2 hrs postinfection thrice daily for 1 day and once daily for 1 day measured after 48 hrs by organ burden assay relative to control; type: functional
Staphylococcus aureus [12] = test: Antibacterial activity against methicillin-resistant Staphylococcus aureus COL infected in po dosed DBA/2 mouse localized infection model assessed as reduction of number of CFU per gram of thigh administered 2 hrs postinfection thrice daily for 1 day and once daily for 5 days measured after 48 hrs relative to control; type: functional
Staphylococcus aureus [13] = test: Antibacterial activity against methicillin-susceptible Staphylococcus aureus Smith infected in C3H mouse assessed as eradication at 12.5 mg/kg/day, iv administered within 15 mins of infection assessed per gram of kidney measured after 48 hrs by organ burden assay relative to control; type: functional
Staphylococcus aureus [14] = test: Antibacterial activity against methicillin-susceptible Staphylococcus aureus Smith infected in C3H mouse assessed as eradication at 6.25 mg/kg/day, iv administered within 15 mins of infection assessed per gram of kidney measured after 48 hrs by organ burden assay relative to control; type: functional
Staphylococcus aureus [15] = test: Antibacterial activity against methicillin-susceptible Staphylococcus aureus Smith infected in C3H mouse assessed as reduction in log number of CFU at 25 mg/kg/day, po administered within 15 mins of infection measured after 48 hrs by organ burden assay relative to control; type: functional
Staphylococcus aureus [16] = test: Antibacterial activity against methicillin-susceptible Staphylococcus aureus Smith infected in C3H mouse assessed as reduction in log number of CFU at 6.25 mg/kg/day, iv administered within 15 mins of infection measured after 48 hrs by organ burden assay relative to control; type: functional
Staphylococcus aureus [17] = test: Antibacterial activity against methicillin-susceptible Staphylococcus aureus Smith infected in C3H mouse assessed as reduction in log number of CFU at 12.5 mg/kg/day, iv administered within 15 mins of infection measured after 48 hrs by organ burden assay relative to control; type: functional
Staphylococcus aureus [18] = test: Antibacterial activity against methicillin-susceptible Staphylococcus aureus Smith infected in C3H mouse assessed as reduction in log number of CFU at 3.12 mg/kg/day, iv administered within 15 mins of infection measured after 48 hrs by organ burden assay relative to control; type: functional
Staphylococcus aureus [19] = test: Antibacterial activity against methicillin-susceptible Staphylococcus aureus Smith infected in C3H mouse assessed as eradication at 25 mg/kg/day, iv administered within 15 mins of infection assessed per gram of kidney measured after 48 hrs by organ burden assay relative to control; type: functional
Staphylococcus aureus [20] = test: Antibacterial activity against methicillin-resistant Staphylococcus aureus COL infected in iv dosed DBA/2 mouse localized infection model assessed as reduction of number of CFU per gram of thigh administered 2 hrs postinfection thrice daily for 1 day and once daily for 1 day measured after 48 hrs relative to control; type: functional
Staphylococcus aureus [21] = test: Antibacterial activity against methicillin-resistant Staphylococcus aureus COL infected in po dosed DBA/2 mouse localized infection model assessed as log reduction in CFU per gram of thigh at 10 mg/kg, iv administered 2 hrs postinfection thrice daily for 1 day and once daily for 1 day measured after 48 hrs by organ burden assay relative to control; type: functional
Staphylococcus aureus [22] = test: Antibacterial activity against methicillin-resistant Staphylococcus aureus COL infected in po dosed DBA/2 mouse localized infection model assessed as log reduction in CFU per gram of thigh at 10 mg/kg, po administered 2 hrs postinfection thrice daily for 1 day and once daily for 5 days measured after 48 hrs by organ burden assay relative to control; type: functional
Staphylococcus aureus [23] = test: Antibacterial activity against methicillin-susceptible Staphylococcus aureus Smith infected in C3H mouse assessed as reduction in log number of CFU at 6.25 mg/kg/day, po administered within 15 mins of infection measured after 48 hrs by organ burden assay relative to control; type: functional
[24] = Fraction unbound in Staphylococcus aureus-infected mouse localized thigh infection model plasma at 25 mg/kg; type: ADME, organism-based; parameters: dose 25 mg/kg; details: read-out: PPB
Staphylococcus aureus [25] = test: Antibacterial activity against methicillin-susceptible Staphylococcus aureus Smith infected in C3H mouse assessed as eradication at 6.25 mg/kg/day, po administered within 15 mins of infection assessed per gram of kidney measured after 48 hrs by organ burden assay relative to control; type: functional
Staphylococcus aureus [26] = test: Antibacterial activity against methicillin-susceptible Staphylococcus aureus Smith infected in iv dosed C3H mouse localized infection model assessed as reduction of number of CFU per gram of kidney administered 15 mins after infection measured after 48 hrs relative to control; type: functional
Staphylococcus aureus [27] = test: Antibacterial activity against methicillin-susceptible Staphylococcus aureus Smith infected in C3H mouse assessed as eradication at 12.5 mg/kg/day, po administered within 15 mins of infection assessed per gram of kidney measured after 48 hrs by organ burden assay relative to control; type: functional
Staphylococcus aureus [28] = test: Antibacterial activity against methicillin-susceptible Staphylococcus aureus Smith infected in C3H mouse assessed as eradication at 3.12 mg/kg/day, iv administered within 15 mins of infection assessed per gram of kidney measured after 48 hrs by organ burden assay relative to control; type: functional
Staphylococcus aureus [29] = test: Antibacterial activity against methicillin-susceptible Staphylococcus aureus Smith infected in C3H mouse assessed as eradication at 3.12 mg/kg/day, po administered within 15 mins of infection assessed per gram of kidney measured after 48 hrs by organ burden assay relative to control; type: functional
Staphylococcus aureus [30] = test: Antibacterial activity against linezolid-resistant methicillin-resistant Staphylococcus aureus infected in C3H mouse localized infection model assessed as log reduction in CFU per gram of thigh at 100 mg/kg measured after 48 hrs by organ burden assay relative to control; type: functional
Moraxella catarrhalis = test: Antibacterial activity against Moraxella catarrhalis by dilution susceptibility test; type: functional
Haemophilus influenzae = test: Antibacterial activity against Haemophilus influenzae by dilution susceptibility test; type: functional
Enterococcus = test: Antibacterial activity against vancomycin-resistant Enterococcus spp.; type: functional, organism-based
Streptococcus pneumoniae = test: Antibacterial activity against penicillin-resistant Streptococcus pneumoniae; type: functional, organism-based
Staphylococcus aureus [31] = test: Antibacterial activity against methicillin-susceptible Staphylococcus aureus Smith by dilution susceptibility test; type: functional
Staphylococcus aureus [32] = test: Antibacterial activity against methicillin-resistant Staphylococcus aureus; type: functional, organism-based
[33] = Bioavailability in Staphylococcus aureus-infected mouse localized thigh infection model at 25 mg/kg; type: ADME, organism-based; details: in vivo

Compound | Activity (Staphylococcus aureus [1]) | Activity (Staphylococcus aureus [2]) | log10cfu (Staphylococcus aureus [4]) | MIC (Staphylococcus aureus [5]) [µg/mL] | ED99 (Staphylococcus aureus [6]) [mg/kg] | Activity (Staphylococcus aureus [7]) | MIC (Staphylococcus aureus [8]) [µg/mL] | ED99 (Staphylococcus aureus [9]) [mg/kg] | Activity (Staphylococcus aureus [10]) [%] | log10cfu (Staphylococcus aureus [11]) | ED99 (Staphylococcus aureus [12]) [mg/kg] | Activity (Staphylococcus aureus [13]) [%] | Activity (Staphylococcus aureus [14]) [%] | Activity (Staphylococcus aureus [15]) | Activity (Staphylococcus aureus [16]) | Activity (Staphylococcus aureus [17]) | Activity (Staphylococcus aureus [18]) | Activity (Staphylococcus aureus [19]) [%] | ED99 (Staphylococcus aureus [20]) [mg/kg] | log10cfu (Staphylococcus aureus [21]) | other results
CC(=O)NC[C@H]1CN(c2ccc(N3CCOCC3)c(F)c2)C(=O)O1 [LINEZOLID] | -0.53 | 4.27 | 2 | 1 (≈ 2.96 µM) | 7 | 2.71 | 64 (≈ 190 µM) | 85 | 100 | 2.4 | 5.2 | 0 | 0 | 6.07 | -0.12 | 1.44 | -0.27 | 0 | 6.9 | 1.5 | Activity (Staphylococcus aureus [3]): Active; log10cfu (Staphylococcus aureus [22]): 3.7; Activity (Staphylococcus aureus [23]): 1.44; fraction unbound [24]: 0.68; Activity (Staphylococcus aureus [25]): 0%; ED99 (Staphylococcus aureus [26]): 12 mg/kg; Activity (Staphylococcus aureus [27]): 0%; Activity (Staphylococcus aureus [28]): 0%; Activity (Staphylococcus aureus [29]): 0%; log10cfu (Staphylococcus aureus [30]): 2.5
N#C[C@]1(c2ccc(-c3ccc(N4C[C@H](Cn5ccnn5)OC4=O)cc3F)cn2)[C@@H]2CNC[C@@H]21 | -0.26 | 4.59 | 2 | 0.125 (≈ 0.281 µM) | 4.9 | 2.93 | 1 (≈ 2.24 µM) | 10.2 | 0 | 2.4 | 4.2 | 0 | 0 | 5.23 | 2.03 | 4.46 | 0.06 | 0 | 5.6 | 1.5 | MIC90 (Moraxella catarrhalis): 0.5 µg/mL (≈ 1.12 µM); MIC90 (Haemophilus influenzae): 2 µg/mL (≈ 4.49 µM); Activity (Enterococcus): Active; Activity (Streptococcus pneumoniae): Active; MIC (Staphylococcus aureus [31]): 0.125 µg/mL (≈ 0.281 µM); Activity (Staphylococcus aureus [32]): Active; bioavailability [33]: 30%; log10cfu (Staphylococcus aureus [22]): 3.7; Activity (Staphylococcus aureus [23]): 2.63; fraction unbound [24]: 0.19; Activity (Staphylococcus aureus [25]): 0%; ED99 (Staphylococcus aureus [26]): 6.3 mg/kg; Activity (Staphylococcus aureus [27]): 0%; Activity (Staphylococcus aureus [28]): 0%; Activity (Staphylococcus aureus [29]): 0%
